Experimental data published in PubChem BioAssay AID1963442 (Molecular Pharmacology Branch, DTP, NCI, 2024).

Tested on: MPNST complex spheroid with HUVEC/MSC, growth, % test/control
Assay: Anticancer human tumor MPNST cell line growth inhibition [Asc];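 also: compounds left on spheroids for seven days before reading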
Details: for IC50: curve of first compound; for viability, T/C: stronger effect = lower value
Summary of the method: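 Complex solid-tumor spheroids incorporating human endothelial and mesenchymal stem cells received single agents or combinations over half-log dilution ranges anchored to clinical Cmax.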

[1] = second compound 0.03 µM, first compound 0.0316 µM
[2] = second compound 0.03 µM, first compound 0.1 µM
[3] = second compound 0.03 µM, first compound 0.316 µM
[4] = second compound 0.03 µM, first compound 1 µM
[5] = second compound 0.0949 µM, first compound 0.0316 µM
[6] = second compound 0.0949 µM, first compound 0.1 µM
[7] = second compound 0.0949 µM, first compound 0.316 µM
[8] = second compound 0.0949 µM, first compound 1 µM
[9] = second compound 0.3 µM, first compound 0.0316 µM
[10] = second compound 0.3 µM, first compound 0.1 µM
[11] = second compound 0.3 µM, first compound 0.316 µM
[12] = second compound 0.3 µM, first compound 1 µM
[13] = second compound 0.949 µM, first compound 0.0316 µM
[14] = second compound 0.949 µM, first compound 0.1 µM
[15] = second compound 0.949 µM, first compound 0.316 µM
[16] = second compound 0.949 µM, first compound 1 µM
[17] = second compound 3 µM, first compound 0.0316 µM
[18] = second compound 3 µM, first compound 0.1 µM
[19] = second compound 3 µM, first compound 0.316 µM
[20] = second compound 3 µM, first compound 1 µM

With `C#Cc1c(F)ccc2cc(O)cc(-c3ncc4c(N5CC6CCC(C5)N6)nc(OCC56CCCN5CC(F)C6)nc4c3F)c12` (stereo not given) + Cc1c(S(C)(=O)=O)c(-c2cc(F)cc(N3CCN(c4ccc(NS(=O)(=O)c5ccc(NC(CCN6CCC(C(=O)OCCCP(=O)(O)O)CC6)CSc6ccccc6)c(S(=O)(=O)C(F)(F)F)c5)cc4)CC3)c2)c(-c2ccc(Cl)cc2)n1C(C)C the IC50 (second compound 0.1 µM) was > 10000 nM, the IC50 (second compound 0.316 µM) was > 10000 nM and the IC50 (second compound 1 µM) was > 10000 nM. The IC50 (second compound 3.16 µM) was > 10000 nM, the IC50 (second compound 10 µM) was > 10000 nM and the viability, T/C (second compound 0.1 µM, first compound 0.0316 µM) was 99.2%. The viability, T/C (second compound 0.1 µM, first compound 0.1 µM) was 104%, the viability, T/C (second compound 0.1 µM, first compound 0.316 µM) was 92.9% and the viability, T/C (second compound 0.1 µM, first compound 1 µM) was 103%. It also gave a viability, T/C (second compound 0.1 µM, first compound 3.16 µM) of 99.9%, a viability, T/C (second compound 0.1 µM, first compound 10 µM) of 101% and a viability, T/C (second compound 0.316 µM, first compound 0.0316 µM) of 93.4%. It also gave a viability, T/C (second compound 0.316 µM, first compound 0.1 µM) of 105%, a viability, T/C (second compound 0.316 µM, first compound 0.316 µM) of 110% and a viability, T/C (second compound 0.316 µM, first compound 1 µM) of 94.7%. It also gave a viability, T/C (second compound 0.316 µM, first compound 3.16 µM) of 91%, a viability, T/C (second compound 0.316 µM, first compound 10 µM) of 96.5% and a viability, T/C (second compound 1 µM, first compound 0.0316 µM) of 97%. The viability, T/C (second compound 1 µM, first compound 0.1 µM) was 99.2%, the viability, T/C (second compound 1 µM, first compound 0.316 µM) was 101% and the viability, T/C (second compound 1 µM, first compound 1 µM) was 95.4%. The viability, T/C (second compound 1 µM, first compound 3.16 µM) was 93.4%, the viability, T/C (second compound 1 µM, first compound 10 µM) was 77% and the viability, T/C (second compound 3.16 µM, first compound 0.0316 µM) was 80.5%. The viability, T/C (second compound 3.16 µM, first compound 0.1 µM) was 91.2%, the viability, T/C (second compound 3.16 µM, first compound 0.316 µM) was 117% and the viability, T/C (second compound 3.16 µM, first compound 1 µM) was 101%. For the same compound, the viability, T/C (second compound 3.16 µM, first compound 3.16 µM) was 78.2%, the viability, T/C (second compound 3.16 µM, first compound 10 µM) was 71.8% and the viability, T/C (second compound 10 µM, first compound 0.0316 µM) was 121%. For the same compound, the viability, T/C (second compound 10 µM, first compound 0.1 µM) was 135%, the viability, T/C (second compound 10 µM, first compound 0.316 µM) was 118% and the viability, T/C (second compound 10 µM, first compound 1 µM) was 158%. For the same compound, the viability, T/C (second compound 10 µM, first compound 3.16 µM) was 108% and the viability, T/C (second compound 10 µM, first compound 10 µM) was 124%.

Work on `COc1c(OCCCN2CCOCC2)ccc2c3n(c(=NC(=O)c4cnc(N)nc4)nc12)CCN3` + CCN1C(C(=O)NC23CCC(C(=O)O)(CC2)CC3)C(c2cccc(Cl)c2F)C2(C(=O)Nc3cc(Cl)ccc32)C12CCCCC2 yielded an IC50 (second compound 0.03 µM) of 25.4 nM, an IC50 (second compound 0.0949 µM) of 29.7 nM and an IC50 (second compound 0.3 µM) of 38.4 nM. It also gave an IC50 (second compound 0.949 µM) of 27.2 nM, an IC50 (second compound 3 µM) of 20.9 nM and a viability, T/C (second compound 0.03 µM, first compound 0.00316 µM) of 66.2%. The viability, T/C (second compound 0.03 µM, first compound 0.01 µM) was 58.8%, the viability, T/C [1] was 47% and the viability, T/C [2] was 37.1%. For the same compound, the viability, T/C [3] was 25.9%, the viability, T/C [4] was 14.6% and the viability, T/C (second compound 0.0949 µM, first compound 0.00316 µM) was 75.6%. For the same compound, the viability, T/C (second compound 0.0949 µM, first compound 0.01 µM) was 58.2%, the viability, T/C [5] was 51.5% and the viability, T/C [6] was 36.5%. The viability, T/C [7] was 30.3%, the viability, T/C [8] was 17.4% and the viability, T/C (second compound 0.3 µM, first compound 0.00316 µM) was 77.3%. For the same compound, the viability, T/C (second compound 0.3 µM, first compound 0.01 µM) was 64.1%, the viability, T/C [9] was 55% and the viability, T/C [10] was 36.5%. The viability, T/C [11] was 24.4%, the viability, T/C [12] was 17.4% and the viability, T/C (second compound 0.949 µM, first compound 0.00316 µM) was 81.3%. For the same compound, the viability, T/C (second compound 0.949 µM, first compound 0.01 µM) was 60.4%, the viability, T/C [13] was 52.2% and the viability, T/C [14] was 33.2%. The viability, T/C [15] was 21%, the viability, T/C [16] was 17.3% and the viability, T/C (second compound 3 µM, first compound 0.00316 µM) was 74%. It also gave a viability, T/C (second compound 3 µM, first compound 0.01 µM) of 62%, a viability, T/C [17] of 43% and a viability, T/C [18] of 28%. For the same compound, the viability, T/C [19] was 19.1% and the viability, T/C [20] was 15.6%.

`NC(=O)C(=Cn1cnc(-c2cc(C(F)(F)F)cc(C(F)(F)F)c2)n1)c1cncnc1` + CCN1C(C(=O)NC23CCC(C(=O)O)(CC2)CC3)C(c2cccc(Cl)c2F)C2(C(=O)Nc3cc(Cl)ccc32)C12CCCCC2 showed an IC50 (second compound 0.03 µM) of 172 nM, an IC50 (second compound 0.0949 µM) of 139 nM and an IC50 (second compound 0.3 µM) of 198 nM. For the same compound, the IC50 (second compound 0.949 µM) was 88 nM, the IC50 (second compound 3 µM) was 80.8 nM and the viability, T/C (second compound 0.03 µM, first compound 0.000949 µM) was 64.2%. It also gave a viability, T/C (second compound 0.03 µM, first compound 0.003 µM) of 78.6%, a viability, T/C (second compound 0.03 µM, first compound 0.00949 µM) of 66.9% and a viability, T/C (second compound 0.03 µM, first compound 0.03 µM) of 64%. For the same compound, the viability, T/C (second compound 0.03 µM, first compound 0.0949 µM) was 56.2%, the viability, T/C (second compound 0.03 µM, first compound 0.3 µM) was 43.7% and the viability, T/C (second compound 0.0949 µM, first compound 0.000949 µM) was 75%. It also gave a viability, T/C (second compound 0.0949 µM, first compound 0.003 µM) of 90.7%, a viability, T/C (second compound 0.0949 µM, first compound 0.00949 µM) of 79.7% and a viability, T/C (second compound 0.0949 µM, first compound 0.03 µM) of 71%. It also gave a viability, T/C (second compound 0.0949 µM, first compound 0.0949 µM) of 55.5%, a viability, T/C (second compound 0.0949 µM, first compound 0.3 µM) of 40.1% and a viability, T/C (second compound 0.3 µM, first compound 0.000949 µM) of 90.9%. The viability, T/C (second compound 0.3 µM, first compound 0.003 µM) was 99.1%, the viability, T/C (second compound 0.3 µM, first compound 0.00949 µM) was 90.9% and the viability, T/C (second compound 0.3 µM, first compound 0.03 µM) was 79.3%. For the same compound, the viability, T/C (second compound 0.3 µM, first compound 0.0949 µM) was 64.8%, the viability, T/C (second compound 0.3 µM, first compound 0.3 µM) was 42% and the viability, T/C (second compound 0.949 µM, first compound 0.000949 µM) was 95.2%. The viability, T/C (second compound 0.949 µM, first compound 0.003 µM) was 97%, the viability, T/C (second compound 0.949 µM, first compound 0.00949 µM) was 89.3% and the viability, T/C (second compound 0.949 µM, first compound 0.03 µM) was 71.6%. It also gave a viability, T/C (second compound 0.949 µM, first compound 0.0949 µM) of 47.8%, a viability, T/C (second compound 0.949 µM, first compound 0.3 µM) of 42.5% and a viability, T/C (second compound 3 µM, first compound 0.000949 µM) of 93.9%. The viability, T/C (second compound 3 µM, first compound 0.003 µM) was 77.8%, the viability, T/C (second compound 3 µM, first compound 0.00949 µM) was 66.1% and the viability, T/C (second compound 3 µM, first compound 0.03 µM) was 56%. For the same compound, the viability, T/C (second compound 3 µM, first compound 0.0949 µM) was 50.7% and the viability, T/C (second compound 3 µM, first compound 0.3 µM) was 42.6%.

In the case of `C#Cc1c(F)ccc2cc(O)cc(-c3ncc4c(N5CC6CCC(C5)N6)nc(OCC56CCCN5CC(F)C6)nc4c3F)c12` (stereo not given) + CCN1C(C(=O)NC23CCC(C(=O)O)(CC2)CC3)C(c2cccc(Cl)c2F)C2(C(=O)Nc3cc(Cl)ccc32)C12CCCCC2, the IC50 (second compound 0.03 µM) is reported as > 10000 nM, the IC50 (second compound 0.0949 µM) is reported as > 10000 nM and the IC50 (second compound 0.3 µM) is reported as > 10000 nM. The IC50 (second compound 0.949 µM) was > 10000 nM, the IC50 (second compound 3 µM) was > 10000 nM and the viability, T/C [1] was 71.3%. It also gave a viability, T/C [2] of 72.9%, a viability, T/C [3] of 79.2% and a viability, T/C [4] of 75.8%. It also gave a viability, T/C (second compound 0.03 µM, first compound 3.16 µM) of 78.4%, a viability, T/C (second compound 0.03 µM, first compound 10 µM) of 68.4% and a viability, T/C [5] of 70.3%. For the same compound, the viability, T/C [6] was 83.3%, the viability, T/C [7] was 75.7% and the viability, T/C [8] was 76.7%. The viability, T/C (second compound 0.0949 µM, first compound 3.16 µM) was 71.2%, the viability, T/C (second compound 0.0949 µM, first compound 10 µM) was 77% and the viability, T/C [9] was 84.6%. For the same compound, the viability, T/C [10] was 73.6%, the viability, T/C [11] was 89.1% and the viability, T/C [12] was 72.6%. The viability, T/C (second compound 0.3 µM, first compound 3.16 µM) was 60.8%, the viability, T/C (second compound 0.3 µM, first compound 10 µM) was 51% and the viability, T/C [13] was 66.8%. The viability, T/C [14] was 72%, the viability, T/C [15] was 73% and the viability, T/C [16] was 60.9%. The viability, T/C (second compound 0.949 µM, first compound 3.16 µM) was 61.1%, the viability, T/C (second compound 0.949 µM, first compound 10 µM) was 52.5% and the viability, T/C [17] was 66.5%. It also gave a viability, T/C [18] of 62.2%, a viability, T/C [19] of 57.8% and a viability, T/C [20] of 59.8%. It also gave a viability, T/C (second compound 3 µM, first compound 3.16 µM) of 60.1% and a viability, T/C (second compound 3 µM, first compound 10 µM) of 68.8%.
